Measurements as given in publication PMC12648443, “Modifications of NU-9, a potent protein aggregation inhibitor. Properties and activity in a cellular model of amyotrophic lateral sclerosis” (Bioorganic chemistry, 2025).

Tests used:
[1] = test system: cells containing SOD1 mutations associated with ALS; design: method as in PMID 21073276, PMID 22189273, PMID 22837812; conditions: Fig. 1, evolution of CHD series; cited from earlier work
cortical neurons = test system: cortical neurons; design: method as in PMID 22189273; conditions: cited from earlier work
[2] = test system: MG132-induced mutant SOD1 intracellular aggregation in PC12-SOD1^G85R YFP cells; test: Protection against MG132-induced mut-SOD1 intracellular aggregation (fluorescence microscopy); format: cell-based; conditions: for EC50 / EC50 against MG132-induced mutant SOD1 intracellular aggregation: PC12-SOD1^G85R YFP cells, 0.7 μM MG132, 72 h, Inactive = no decrease of aggregates at 10 μM vs vehicle; for loss of potency relative to NU-9: anti-aggregation EC50 compared with NU-9
Description: The PC12 Tet-Off-SOD1^G85R YFP cells were cultured in DMEM media supplemented with 10 % horse serum, 5 % Tet-approved FBS, 1 % Penstrep, 1× L-glutamine, 200 μg/mL hygromycin, 100 μg/mL G418, with 1 μg/mL Doxycycline and were incubated at 37 °C in humidified air with […] until 90–95 % confluency. To induce the expression of SOD1^G85R YFP, the Doxycycline was removed at least 4 days before the experiment. To remove the Doxycycline, the media was removed, and the cells were washed 3 times with 1xPBS. The cells were then cultured in standard culture media without Doxycycline. To set up the assay, the cells were then seeded into 96-well cell culture plates (Greiner Bio-One Catalog #655090) at a concentration of 50,000 cells/well with a final volume of 100 μL/well and incubated in the CO2 incubator at 37 °C for 24 h. The media were removed from the cells and replaced with 100 μL of media containing 0.1 % DMSO or compounds, and incubated in the CO2 incubator at 37 °C for 6 h. The media were then replaced with fresh 100 μL of media containing the diluted compounds with 0.7 μM (−)-MG-132, and the plates were incubated for 72 h under culture conditions. After 72 h, the cells were stained with Hoescht 33,342 (55 μg/mL, 10 μL/well) and imaged (lex = 358, 513 nm) using a Molecular Devices ImageXpress Micro Confocal High-Content Imaging System equipped with a 40× objective. […] Image binning was set to 2. DAPI fluorescence was captured using an exposure time of 300 ms, and FITC fluorescence was captured using an exposure time of 400 ms. A 13-plane z-series was acquired for each field of view with a step size of 3 μm. For each condition, 2 sets of 9 images were generated in a 3 × 3 grid to separately image the SOD1^G85R YFP proteins and the nuclei stained with Hoescht 33,342. Image analysis was performed with MetaXpress software (Molecular Devices) using the Transfluor module. Parameters for puncta detection (aggregates) were set with a minimum pit width of 2 μm and a maximum pit width of 5 μm. Signal intensity thresholds were defined as 700 grayscale units above the local background. The analysis provided the average area of each cell that is covered by puncta (pit/cell), which are indicated by bright green spots on the SOD1^G85RYFP image set.
The assay was performed in triplicate for each condition tested, and wells containing the media with vehicle (0.1 % DMSO) or (−)-MG-132 alone were used as controls representing the minimum and maximum aggregate formation. […] The data for EC50 determination was treated with Prism and fitted using a semi-logarithmic curve for determination of the EC50 values of NU9 and compounds 4, 6, 20 and 21.

[3] = Parallel artificial membrane permeability assay - blood brain barrier (PAMPA-BBB); conditions: for Log Pe: High permeability LogPe > −5.33, No permeability LogPe < −6.14; for Papp at 18 h, 250 μM: pig, PAMPA, pH 7.5
Description: A solution of 1 × PBS (pH 7.5) was initially prepared by the dilution of a commercially available 10 × PBS solution. […] A solution of porcine brain lipid (PBL) (20 mg/mL in dodecane) was prepared, and 4 μL of this solution was used to coat the filters on the bottom of the PAMPA donor plates (Sigma Aldrich #MAIPNTR10). After air drying for 20 min, the donor plate wells were charged with 250 μL of the solutions of the test compounds or the controls. The donor plate was then placed over the acceptor plate (Sigma Aldrich #MATRNPS50), in which wells were previously filled with 1 × PBS (2 % DMSO v/v) solution. The PAMPA sandwich was closed with parafilm and incubated at 25 °C for 18 h in a humidity-saturated atmosphere with orbital agitation. […] The UV spectra (250–400 nm) of each well were acquired on a BioTek Synergy H1 MD plate reader equipped with a monochromator at room temperature.
CA(t) is the concentration of the compounds at the final time of incubation on the acceptor well; CD(0) and CD(t) are the concentration of the compounds at the initial time of incubation and at the final time of incubation on the donor well, respectively.

P-gp = target: T1, P-gp (Homo sapiens, UniProt P08183); test: MDCK-MDR1 bidirectional permeability / efflux assay; format: in vitro ADME; conditions: MDCK-MRD1, absence of zosuquidar
T1 construct: host or cells: MDCK-MDR1 (Madin Darby canine kidney cells carrying the MDR1 gene)
Description: The assay was carried out at Sai Life Sciences. Stock solutions of 6, 20, assay controls loperamide, atenolol, and propanolol (4 and 20 mM), and P-gp inhibitor zosuquidar (10 mM) were prepared in DMSO. Then the stock solutions from each test compound were diluted in HBSS buffer containing 10 mM HEPES to obtain the assay working solutions without the P-gp inhibitor at 2 and 10 μM (0.1 % DMSO v/v). Into working solutions containing zosuquidar (5 μM) were individually diluted 6, 20, and loperamide to obtain working solutions containing the test compounds at 2 or 10 μM and zosuquidar at 5 μM.
The MDCK-MDR1 (Madin Darby canine kidney - Multidrug Resistance gene-1) cells were cultured in DMEM media supplemented with 10 % FBS and antibiotics. For transport studies, cells were seeded into PET trans filter membranes (Millipore #PSRP010R5; 1.0 μm pore size) at a density of 1.2 × 10^5 cells/well and colchicine was added to the flasks and plates according to their volume. After 24 h, the media were replaced by fresh media and then changed every 2 days over 8 days. The media were removed from the wells of the basal and apical compartments of the plates, and a solution of HBSS with or without zosuquidar (5 μM) was added to the apical (400 μL) and basal (800 μL) sides of the plates. The plates were pre-incubated at 37 °C for 30 min in humidified air with 5 % CO2. The TTER (Transepithelial-Transendothelial Electrical Resistance) value for each well was recorded (assay TEER >83 Ω.cm^2). The buffer was removed from both compartments, and for the apical to basal direction transport determination, the apical compartment was loaded with 400 μL of the working solutions of the tested compounds or controls (2 or 10 μM) in the presence or absence of zosuquidar (5 μM), and the basal compartment was loaded with 800 μL of HBSS (0.1 % DMSO v/v). For the basal to apical direction transport determination, the compartments were loaded in their reverse order. The assay was performed in duplicate for the two transport directions [apical to basolateral (A → B) and basolateral to apical (B → A)]. After 120 min, 100 μL samples from both the apical and basal sides of the plate were transferred to new 96-deep well plates, quenched with acetonitrile containing an internal standard, vortexed for 5 min, and then centrifuged at 4000 rpm for 10 min. The same procedure was used to prepare a 96-deep well plate containing non-assayed working solutions (t = 0 concentrations). After centrifugation, 100 μL of the supernatant of each well was transferred to a new 96-well plate, and the samples were analyzed by LC-MS/MS.
For each experiment, the apparent permeability (Papp) for each direction and the efflux ratio (ER) were determined by the equations: Papp(cm/s)=(dQ/dt)/A×Co
where dQ/dt is the rate of permeation of the tested compounds across the (0 and 120 min) after correcting for dilution; A is the area of the filter (0.7 cm^2); Co is the initial concentration of the compounds on the donor compartment.
Where P(B→A) is the apparent permeability of the compounds from the basal to the apical direction and P(A→B) is the apparent permeability from the apical to basal direction. Lucifer Yellow was used as a control of the assay to evaluate monolayer integrity after incubation with the working solutions of the compounds, and the results were validated if the permeability of Lucifer Yellow from the apical to the basal side after 1-h incubation was kept <2 %. The results are presented as an average of two independent experiments.

T1 sequence (P08183 whole entry): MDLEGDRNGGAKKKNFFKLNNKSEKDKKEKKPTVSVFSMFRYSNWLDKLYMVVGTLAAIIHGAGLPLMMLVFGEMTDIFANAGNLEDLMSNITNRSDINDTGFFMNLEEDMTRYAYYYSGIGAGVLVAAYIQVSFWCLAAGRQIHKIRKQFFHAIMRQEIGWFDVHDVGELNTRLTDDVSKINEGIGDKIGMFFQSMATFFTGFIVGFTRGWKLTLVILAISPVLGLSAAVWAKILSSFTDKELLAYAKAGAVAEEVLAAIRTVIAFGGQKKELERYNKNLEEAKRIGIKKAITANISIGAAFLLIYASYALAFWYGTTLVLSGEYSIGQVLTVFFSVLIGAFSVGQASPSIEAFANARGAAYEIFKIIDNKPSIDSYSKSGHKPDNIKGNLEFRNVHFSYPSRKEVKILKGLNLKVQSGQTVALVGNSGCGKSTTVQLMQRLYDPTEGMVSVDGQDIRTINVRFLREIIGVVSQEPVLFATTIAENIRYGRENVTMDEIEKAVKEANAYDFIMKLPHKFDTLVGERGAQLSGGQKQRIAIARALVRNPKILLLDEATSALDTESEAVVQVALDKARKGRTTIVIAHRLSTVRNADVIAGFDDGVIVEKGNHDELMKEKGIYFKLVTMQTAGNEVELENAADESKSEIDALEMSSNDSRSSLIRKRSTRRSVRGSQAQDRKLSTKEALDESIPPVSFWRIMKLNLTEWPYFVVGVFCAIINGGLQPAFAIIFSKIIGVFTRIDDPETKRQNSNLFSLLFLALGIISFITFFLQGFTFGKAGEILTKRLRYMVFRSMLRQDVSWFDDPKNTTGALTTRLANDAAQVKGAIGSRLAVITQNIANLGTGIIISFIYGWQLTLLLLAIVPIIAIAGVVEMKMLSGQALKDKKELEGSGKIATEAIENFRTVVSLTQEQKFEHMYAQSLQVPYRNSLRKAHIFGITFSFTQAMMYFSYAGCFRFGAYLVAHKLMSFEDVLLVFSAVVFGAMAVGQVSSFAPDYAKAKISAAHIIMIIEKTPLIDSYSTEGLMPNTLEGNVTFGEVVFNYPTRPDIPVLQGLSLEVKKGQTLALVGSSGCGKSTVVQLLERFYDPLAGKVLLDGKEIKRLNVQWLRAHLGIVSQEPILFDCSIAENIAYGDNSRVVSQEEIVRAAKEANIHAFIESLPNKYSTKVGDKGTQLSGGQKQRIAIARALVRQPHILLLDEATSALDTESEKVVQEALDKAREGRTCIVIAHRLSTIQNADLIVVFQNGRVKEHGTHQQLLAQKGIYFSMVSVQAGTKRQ

For `O=C1CC(=O)CC(c2ccc(F)cc2)C1` [Compound 1], the EC50 [1] is given as 800 nM.

For `O=C1CC(=O)CC(c2cc(C(F)(F)F)cc(C(F)(F)F)c2)C1` [Compound 2], the EC50 [1] is listed as 700 nM and the “activity in cortical neuron protection assays” value (cortical neurons) is listed as “inactive”.

In the case of `O=C1CC(=O)CC(C(O)Cc2cc(C(F)(F)F)cc(C(F)(F)F)c2)C1` (stereo not drawn) [Compound 4, 5-(2-(3,5-Bis(trifluoromethyl)phenyl)-1-hydroxyethyl)cyclohexane-1,3-dione], the EC50 [2] is reported as 7.89 ± 1.88 µM, the “loss of potency relative to NU-9” value [2] is reported as 3 fold and the “Log Pe” value ([3]; PAMPA-BBB) is reported as −6.61. For the same compound, the Papp at 18 h, 250 μM [3] was 0.25 ± 0.01 ×10⁻⁶ cm/s.

In the case of `O[C@@H]1CC([C@H](O)Cc2cc(C(F)(F)F)cc(C(F)(F)F)c2)C[C@H](O)C1` (stereo partly drawn) [Compound 5, (1R,3S)-5-((R)-2-(3,5-Bis(trifluoromethyl)phenyl)-1-hydroxyethyl)cyclohexane-1,3-diol], the “EC50 against MG132-induced mutant SOD1 intracellular aggregation” value [2] is reported as “Inactive”.

In the case of `COC1=CC(=O)C(Cc2cc(C(F)(F)F)cc(C(F)(F)F)c2)C1` (stereo not drawn) [Compound 7, 5-(3,5-Bis(trifluoromethyl)benzyl)-3-methoxycyclopent-2-en-1-one], the “EC50 against MG132-induced mutant SOD1 intracellular aggregation” value [2] is reported as “Inactive”.

In the case of `O=C1CC(=O)C(Cc2cc(C(F)(F)F)cc(C(F)(F)F)c2)C1` (stereo not drawn) [Compound 8, 4-(3,5-Bis(trifluoromethyl)benzyl)cyclopentane-1,3-dione], the EC50 [2] is reported as > 10 µM.

For `O=C1CC(=O)CN(CCc2cc(C(F)(F)F)cc(C(F)(F)F)c2)C1` [Compound 10, 1-(3,5-Bis(trifluoromethyl)phenethyl)piperidine-3,5-dione], the EC50 [2] was > 10 µM.

For `O=C1CC2CC(C1)C(Cc1cc(C(F)(F)F)cc(C(F)(F)F)c1)O2` (stereo not drawn) [Compound 11], the “EC50 against MG132-induced mutant SOD1 intracellular aggregation” value [2] was “Inactive”.

For `O=C1CC2CC(C1)C(Cc1cc(C(F)(F)F)cc(C(F)(F)F)c1)O2` (stereo not drawn) [Compound 12], the “EC50 against MG132-induced mutant SOD1 intracellular aggregation” value [2] was “Inactive”.

In the case of `OC1CC2CC(C1)C(Cc1cc(C(F)(F)F)cc(C(F)(F)F)c1)O2` (stereo not drawn) [Compound 13], the “EC50 against MG132-induced mutant SOD1 intracellular aggregation” value [2] is reported as “Inactive”.

For `OC1CC2CC(C1)C(Cc1cc(C(F)(F)F)cc(C(F)(F)F)c1)O2` (stereo not drawn) [Compound 14], the “EC50 against MG132-induced mutant SOD1 intracellular aggregation” value [2] was “Inactive”.

For `OC1CC2CC(C1)C(Cc1cc(C(F)(F)F)cc(C(F)(F)F)c1)O2` (stereo not drawn) [Compound 15], the “EC50 against MG132-induced mutant SOD1 intracellular aggregation” value [2] was “Inactive”.

In the case of `O=C1CC2CC(C1)C(c1cc(C(F)(F)F)cc(C(F)(F)F)c1)O2` (stereo not drawn) [Compound 16], the EC50 [2] is reported as > 10 µM and the “decrease in MG132-induced SOD-1^G85R aggregate formation” value ([2]; at 10 μM, 72 h) is reported as “mild anti-aggregation activity”.

In the case of `OC1CC2CC(C1)C(c1cc(C(F)(F)F)cc(C(F)(F)F)c1)O2` (stereo not drawn) [Compound 17], the “EC50 against MG132-induced mutant SOD1 intracellular aggregation” value [2] is reported as “Inactive”.

For `Cl.N[C@H]1C[C@H]2C[C@@H](C1)[C@H](Cc1cc(C(F)(F)F)cc(C(F)(F)F)c1)O2` [Compound 18, (1R,3R,5R,7S)-7-(3,5-Bis(trifluoromethyl)benzyl)-6-oxabicyclo[3.2.1]octan-3-aminium chloride], the “EC50 against MG132-induced mutant SOD1 intracellular aggregation” value [2] was “Inactive”.

In the case of `Cl.N[C@@H]1C[C@H]2C[C@@H](C1)[C@H](Cc1cc(C(F)(F)F)cc(C(F)(F)F)c1)O2` [Compound 19, (1R,3S,5R,7S)-7-(3,5-Bis(trifluoromethyl)benzyl)-6-oxabicyclo[3.2.1]octan-3-aminium chloride], the “EC50 against MG132-induced mutant SOD1 intracellular aggregation” value [2] is reported as “Inactive”.

With `O=C1CC(=O)CC(C2(Oc3cc(C(F)(F)F)cc(C(F)(F)F)c3)CCC2)C1` [Compound 21, 5-(1-(3,5-bis(trifluoromethyl)phenoxy)cyclobutyl)cyclohexane-1,3-dione] the EC50 [2] was 5.37 ± 1.03 µM, the “loss of potency relative to NU-9” value [2] was > 2 fold and the “Log Pe” value ([3]; PAMPA-BBB) was −4.77. The Papp at 18 h, 250 μM [3] was 16.8 ± 0.54 ×10⁻⁶ cm/s.

In the case of `CC1=NN(c2ccccc2)C(=O)C1` [Edaravone, edaravone, reference compound], the Pe ([3]; PAMPA-BBB, 250 μM, PBS pH 7.5, 25 °C, 18 h) is reported as 17.43 ± 3.20 10^−6 cm/s and the “Log Pe” value ([3]; PAMPA-BBB) is reported as −4.76.

For `CN(C)C(=O)C(CCN1CCC(O)(c2ccc(Cl)cc2)CC1)(c1ccccc1)c1ccccc1` [Lop., loperamide, reference compound], the “Papp (B → A)” value (P-gp) was 25.70 ± 0.35 10^−6 cm/s, the efflux ratio at 120 min (P-gp; dog, MDCK-MDR1, read-out: Efflux Ratio) was 128 and the Papp A→B at 120 min (P-gp; dog, MDCK-MDR1, read-out: Papp (A → B)) was 0.2 ± 0.06 ×10⁻⁶ cm/s.
